According to PubChem BioAssay (NCI):
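Interpolation was linear, between the two tested concentrations surrounding the appropriate level; five concentrations were tested over 48 hours in 96-well plates. Abbreviation: GI50, concentration required for 50% inhibition of growth. The concentration for full growth arrest is given as TGI.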

How the values were obtained:
Experiment in all cases: NCI anticancer screen, dose series, 48 h
MCF7 breast = system: MCF7 breast
NCI-H226 lung = system: NCI-H226 lung
RXF 393 renal = system: RXF 393 renal
NCI-H460 lung = system: NCI-H460 lung
MDA-MB-231 breast = system: MDA-MB-231 breast
NCI-H522 lung = system: NCI-H522 lung
ACHN renal = system: ACHN renal
HCT-116 colon = system: HCT-116 colon
K-562 leukemia = system: K-562 leukemia
HT29 colon = system: HT29 colon
PC-3 prostate = system: PC-3 prostate
MOLT-4 leukemia = system: MOLT-4 leukemia
SF-539 CNS = system: SF-539 CNS
TK-10 renal = system: TK-10 renal
M14 melanoma = system: M14 melanoma
IGROV1 ovarian = system: IGROV1 ovarian
SF-268 CNS = system: SF-268 CNS
SNB-19 CNS = system: SNB-19 CNS
HL-60(TB) leukemia = system: HL-60(TB) leukemia
SK-MEL-28 melanoma = system: SK-MEL-28 melanoma
BT-549 breast = system: BT-549 breast
EKVX NSCLC = system: EKVX NSCLC
MDA-MB-435 = system: MDA-MB-435
SK-OV-3 ovarian = system: SK-OV-3 ovarian
SK-MEL-2 melanoma = system: SK-MEL-2 melanoma
DU-145 prostate = system: DU-145 prostate
HOP-62 NSCLC = system: HOP-62 NSCLC
SR leukemia = system: SR leukemia
HS 578T breast = system: HS 578T breast
SN12C renal = system: SN12C renal
KM12 colon = system: KM12 colon
CAKI-1 renal = system: CAKI-1 renal
HCT-15 colon = system: HCT-15 colon
MALME-3M melanoma = system: MALME-3M melanoma
T-47D breast = system: T-47D breast
UO-31 renal = system: UO-31 renal
UACC-62 melanoma = system: UACC-62 melanoma
SNB-75 CNS = system: SNB-75 CNS
HOP-92 NSCLC = system: HOP-92 NSCLC
UACC-257 melanoma = system: UACC-257 melanoma
HCC-2998 colon = system: HCC-2998 colon
SW-620 colon = system: SW-620 colon
OVCAR-8 ovarian = system: OVCAR-8 ovarian
A498 renal = system: A498 renal
U251 CNS = system: U251 CNS
SF-295 CNS = system: SF-295 CNS
NCI/ADR-RES ovarian = system: NCI/ADR-RES ovarian
OVCAR-5 ovarian = system: OVCAR-5 ovarian
786-0 renal = system: 786-0 renal
LOX IMVI melanoma = system: LOX IMVI melanoma
A549 NSCLC = system: A549 NSCLC
SK-MEL-5 melanoma = system: SK-MEL-5 melanoma
CCRF-CEM leukemia = system: CCRF-CEM leukemia
COLO 205 colon = system: COLO 205 colon
RPMI-8226 leukemia = system: RPMI-8226 leukemia
NCI-H23 lung = system: NCI-H23 lung
OVCAR-4 ovarian = system: OVCAR-4 ovarian

## CCCCCc1ccc(S(=O)(=O)Nc2cc(-c3csc(NC(=O)CN4CCN(C)CC4)n3)ccc2N2CCN(C)CC2)cc1
MCF7 breast
  GI50: 893 nM
  TGI: 1840 nM
NCI-H226 lung
  GI50: 3000 nM
  TGI: 9350 nM
RXF 393 renal
  GI50: 792 nM
  TGI: 1590 nM
NCI-H460 lung
  GI50: 966 nM
  TGI: 1860 nM
MDA-MB-231 breast
  GI50: 913 nM
  TGI: 1830 nM
NCI-H522 lung
  GI50: 909 nM
  TGI: 1720 nM
ACHN renal
  GI50: 1140 nM
  TGI: 2640 nM
HCT-116 colon
  GI50: 735 nM
  TGI: 1490 nM
K-562 leukemia
  GI50: 166 nM
  TGI: 5530 nM
HT29 colon
  GI50: 872 nM
  TGI: 1810 nM
PC-3 prostate
  GI50: 1200 nM
  TGI: 3490 nM
MOLT-4 leukemia
  GI50: 1120 nM
  TGI: 3740 nM
SF-539 CNS
  GI50: 860 nM
  TGI: 1620 nM
TK-10 renal
  GI50: 2920 nM
  TGI: 7140 nM
M14 melanoma
  GI50: 895 nM
  TGI: 1710 nM
IGROV1 ovarian
  GI50: 1120 nM
  TGI: 2610 nM
SF-268 CNS
  GI50: 941 nM
  TGI: 2010 nM
SNB-19 CNS
  GI50: 1380 nM
  TGI: 4110 nM
HL-60(TB) leukemia
  GI50: 1000 nM
  TGI: 2350 nM
SK-MEL-28 melanoma
  GI50: 926 nM
  TGI: 1690 nM
BT-549 breast
  GI50: 4070 nM
  TGI: 11100 nM
EKVX NSCLC
  GI50: 1970 nM
  TGI: 7470 nM
MDA-MB-435
  GI50: 910 nM
  TGI: 1760 nM
SK-OV-3 ovarian
  GI50: 1110 nM
  TGI: 2670 nM
SK-MEL-2 melanoma
  GI50: 853 nM
  TGI: 1610 nM
DU-145 prostate
  GI50: 1520 nM
  TGI: 4640 nM
HOP-62 NSCLC
  GI50: 954 nM
  TGI: 1990 nM
SR leukemia
  GI50: 173 nM
  TGI: 930 nM
HS 578T breast
  GI50: 1050 nM
  TGI: 2420 nM
SN12C renal
  GI50: 1060 nM
  TGI: 2370 nM
KM12 colon
  GI50: 1160 nM
  TGI: 2670 nM
CAKI-1 renal
  GI50: 895 nM
  TGI: 1970 nM
HCT-15 colon
  GI50: 733 nM
  TGI: 1620 nM
MALME-3M melanoma
  GI50: 879 nM
  TGI: 1670 nM
T-47D breast
  GI50: 829 nM
  TGI: 1620 nM
UO-31 renal
  GI50: 818 nM
  TGI: 1670 nM
UACC-62 melanoma
  GI50: 912 nM
  TGI: 1740 nM
SNB-75 CNS
  GI50: 2110 nM
  TGI: 4480 nM
HOP-92 NSCLC
  GI50: 909 nM
  TGI: 3410 nM
UACC-257 melanoma
  GI50: 909 nM
  TGI: 1710 nM
HCC-2998 colon
  GI50: 877 nM
  TGI: 1780 nM
SW-620 colon
  GI50: 853 nM
  TGI: 1640 nM
OVCAR-8 ovarian
  GI50: 966 nM
  TGI: 1950 nM
A498 renal
  GI50: 2900 nM
  TGI: 9030 nM
U251 CNS
  GI50: 834 nM
  TGI: 1650 nM
SF-295 CNS
  GI50: 956 nM
  TGI: 1930 nM
NCI/ADR-RES ovarian
  GI50: 1380 nM
  TGI: 3960 nM
OVCAR-5 ovarian
  GI50: 1250 nM
  TGI: 3310 nM
786-0 renal
  GI50: 826 nM
  TGI: 1570 nM
LOX IMVI melanoma
  GI50: 842 nM
  TGI: 1610 nM
A549 NSCLC
  GI50: 1250 nM
  TGI: 3720 nM
SK-MEL-5 melanoma
  GI50: 900 nM
  TGI: 1640 nM
CCRF-CEM leukemia
  GI50: 792 nM
  TGI: 3380 nM
COLO 205 colon
  GI50: 924 nM
  TGI: 1860 nM
RPMI-8226 leukemia
  GI50: 1030 nM
  TGI: 2660 nM
NCI-H23 lung
  GI50: 1400 nM
  TGI: 4370 nM
OVCAR-4 ovarian
  GI50: 1010 nM
  TGI: 2340 nM
